Measurements reported in patent US20080226682A1, “Immunoactive Compositions for Improved Oral Delivery of Vaccines and Therapeutic Agents” (PerOs Systems Technologies, Inc., priority 2007, published 2008).
Where two headings read alike, the source gives them in different places.

Tests used:
[1] = test system: LPS induced NO generation in RAW264.7 cells; assay: PUFA pretreatment, LPS induced NO generation in RAW264.7
[2] = Plasma pharmacokinetics of antibiotics (HPLC); assay type: in vivo, Coho salmon (Oncorhynchus kisutch); conditions: for AUC, times higher in Formula 2 than same concentration in commercial feed: oral, same dose in both; for Cmax / Tmax / AUC(0-t): plasma; for AUC(0-t): read-out: AUC(0-120 h)
Procedure: In the first study, Coho salmon (n-70 fish/group) were treated with flumequine at a dose of 30 mg/kg incorporated in commercial feed or in formula F2. In the second study, fish were treated orally with florfenicol, antibiotic was given at 15 mg/kg incorporated in commercial feed or at 15 and 50 mg/kg in formula F2. In addition, florfenicol was also given via i.p. injection at 20 mg/kg. At predetermined time periods post-administration, blood samples were collected via the caudal vein according to routine procedures. Levels of antibiotics in plasma of fish were determined by high performance liquid chromatography (HPLC).

[3] = test system: LPS-induced NO generation in RAW264.7 cells; assay: LPS-induced NO generation in RAW264.7 cells (1 hour pretreatment with isoflavones or saponins); assay type: cell-based, murine
Procedure: In yet another exemplary embodiment, the ability of isoflavones to modulate the production of LPS-induced NO generation in RAW264.7 cells was investigated. […] Cells were incubated with isoflavones for 1 hour at 37±2° C.
Cells were incubated with saponins 1 hour at 37±2° C.

bovine immune cells = conditions: purified isoflavone
[4] = test system: PHA induced IFN-gamma production in calf PBMC; assay: PHA induced IFN-gamma production in calf PBMC; assay type: cell-based; conditions: PHA-E+L 1 ug/ml, 3 days, FIG. 9
Procedure: Calf PBMC were isolated as described in Example 3. […] After incubation, supernatants were sampled. Supernatants from identical treatment wells were combined and stored frozen at −18±5° C. until tested for IFN-gamma. Supernatant samples were tested for bovine IFN-gamma using a commercial kit (Thermo Scientific). Briefly, plates were coated overnight with capture antibody in carbonate coating buffer. […] Plates were washed and treated with streptavidin-HRP for 30 minutes at RT. Plates were washed and substrate was added for 20 minutes at RT in the dark. Following incubation, stop solution was added to each well, and plates were read at 450 nm (550 nm reference wavelength). Data was plotted as Stimulation Index (IFN-gamma concentration of sample treated with isoflavone divided by IFN-gamma concentration of sample treated with PHA only) vs. isoflavone concentration. Since isoflavones dilutions were made in DMSO, the DMSO carrier was tested at the corresponding concentrations to determine the carrier effect.

canine immune cells = conditions: purified isoflavone
shrimp immune cells = conditions: purified isoflavone
salmon immune cells = conditions: purified isoflavone
equine immune cells = conditions: purified isoflavone
human immune cells = conditions: purified isoflavone
feline immune cells = conditions: purified isoflavone
swine immune cells = conditions: purified isoflavone
trout immune cells = assay type: cell-based; conditions: purified isoflavone
From the text: The pellet is suspended in RPMI medium.

[5] = Blood glucose after oral administration of insulin; assay type: in vivo, CD1 mice; conditions: FIG. 14
Procedure: Preparation of protease inhibitor extracts. Protease inhibitors (4.44 g beans and 0.56 g albumen) were homogenized in Tris-HCL buffer (pH 7.5). The mixture was divided in equal volumes, centrifuged (3500 RPM for 10 minutes) and supernatants were pooled together. Supernatant was then concentrated by centrifugation through 10K cut-off Millipore filter tubes.
Preparation of uptake-increasing agents solution. In a 15 ml falcon tube, 1 ml of carbonate-bicarbonate buffer (0.25 M, pH 9.5) was added to 45 mg of sodium deoxycholate and stirred until complete dissolution. In another 15 ml falcon tube, 7 ml of carbonate-bicarbonate buffer (0.25 M, pH 9.5) was added to 450 mg of EDTA and stirred until complete dissolution. Both solutions were then pooled together.
Final preparation of liquid formulation. […] The liquid formulation was then kept at 4° C. until use.
Experimental Design. Twenty four female CD1 mice of an average weight of 30 g were used in this study (see Table 14 for the identification of experimental groups). […]
CD1 mice were gavaged with insulin (200 U/kg) incorporated in a liquid composition (group A) and in water (group B). […] At determined time periods post-administration (see Table 13), blood samples were taken via the retroorbital sinus and blood glucose levels were measured individually for each animal using an Ascencia™ DEX-2 blood glucose meter kit.

[6] = po, 15 mg/kg, oral in Oralject ™ (F2)
[7] = po, 15 mg/kg, oral in commercial feed
[8] = po, 50 mg/kg, oral in Oralject ™ (F2)
[9] = po, 30 mg/kg, oral in Oralject ™ (F2)
[10] = po, 30 mg/kg, oral in commercial feed

CCCCC/C=C\C/C=C\C/C=C\C/C=C\CCCC(=O)O [AA, arachidonic acid]
concentration required to inhibit to a similar level (40%) ([1]; 24 hours pretreatment, LPS 1 μg/ml 8 hours): 100 µM | immunomodulatory activity ([1]; FIG. 8): marginal to no immunomodulatory activity

CC/C=C\C/C=C\C/C=C\C/C=C\C/C=C\CCCCCC(=O)O [DPA, docosapentaenoic acid]
inhibition (text: of proliferation; FIG. 8: of LPS induced NO production) ([1]; 1 μM PUFA, 24 hours pretreatment, LPS 1 μg/ml 8 hours): 40% | fold more effective at inhibiting than the N-6 PUFA, AA ([1]; FIG. 8): 10-100 fold

CS(=O)(=O)c1ccc([C@@H](O)[C@@H](CF)NC(=O)C(Cl)Cl)cc1 [Florfenicol]
AUC, times higher in Formula 2 than same concentration in commercial feed [2]: 5.2 times | Cmax ([2]; ip, 20 mg/kg, i.p. injection): 7050 ng/mL | Tmax ([2]; ip, 20 mg/kg, i.p. injection): 4 h | AUC(0-t) ([2]; ip, 20 mg/kg, i.p. injection, 20 mg/kg): 196000 ng·h/mL | Cmax [2, 6]: 2150 ng/mL | Tmax [2, 6]: 16 h | AUC(0-t) ([2]; po, 15 mg/kg, oral in Oralject ™ (F2), 15 mg/kg): 34400 ng·h/mL | Cmax [2, 7]: 1380 ng/mL | Tmax [2, 7]: 8 h | AUC(0-t) ([2]; po, 15 mg/kg, oral in commercial feed, 15 mg/kg): 6700 ng·h/mL | Cmax [2, 8]: 7960 ng/mL | Tmax [2, 8]: 6 h | AUC(0-t) ([2]; po, 50 mg/kg, oral in Oralject ™ (F2), 50 mg/kg): 136000 ng·h/mL

CC1CCc2cc(F)cc3c(=O)c(C(=O)O)cn1c23 (stereo not shown) [Flumequine]
peak plasma concentration, fold higher via Formula 2 than with commercial feed ([2]; 30 mg/kg oral, FIG. 17): approximately 5 fold | AUC, times higher in Formula 2 than same concentration in commercial feed [2]: 3.7 times | Cmax [2, 9]: 440 ng/mL | Tmax [2, 9]: 2 h | AUC(0-t) ([2]; po, 30 mg/kg, oral in Oralject ™ (F2), 30 mg/kg): 61900 ng·h/mL | Cmax [2, 10]: 2290 ng/mL | Tmax [2, 10]: 8 h | AUC(0-t) ([2]; po, 30 mg/kg, oral in commercial feed, 30 mg/kg): 16800 ng·h/mL

CCCCC/C=C\C/C=C\CCCCCCCC(=O)O [LA, linoleic acid]
immunomodulatory activity ([1]; FIG. 8): marginal to no immunomodulatory activity

COc1ccc(-c2coc3cc(O)cc(O)c3c2=O)cc1 [biochanin A, 5,7-dihydroxy 4′-methoxy isoflavone]
fold higher inhibitory activity compared to daidzein or genistein ([3]; 25 μM, FIG. 10): approximately 10 fold | Cytokine Secretion Profile (determined by RT-PCR) (bovine immune cells): None | effect on stimulation indices (IFN-gamma) compared to DMSO control ([4]; 1 μM isoflavone): pronounced increase | effect on stimulation indices (IFN-gamma) compared to DMSO control ([4]; 100 μM isoflavone): inhibitory effect | Cytokine Secretion Profile (determined by RT-PCR) (canine immune cells): IL-4, IL-10 | Cytokine Secretion Profile (determined by RT-PCR) (shrimp immune cells): None | Cytokine Secretion Profile (determined by RT-PCR) (salmon immune cells): IL-4 | Cytokine Secretion Profile (determined by RT-PCR) (equine immune cells): IL-10 | Cytokine Secretion Profile (determined by RT-PCR) (human immune cells): none | Cytokine Secretion Profile (determined by RT-PCR) (feline immune cells): IL-4, IL-10 | Cytokine Secretion Profile (determined by RT-PCR) (swine immune cells): None | Cytokine Secretion Profile (determined by RT-PCR) (trout immune cells): None

O=c1c(-c2ccc(O)cc2)coc2cc(O)ccc12 [daidzein]
Cytokine Secretion Profile (determined by RT-PCR) (bovine immune cells): IL-10 | effect on stimulation indices (IFN-gamma) compared to DMSO control ([4]; 10 nM or 100 nM isoflavone): pronounced decrease | effect on stimulation indices (IFN-gamma) compared to DMSO control ([4]; 1 μM isoflavone): pronounced increase | effect on stimulation indices (IFN-gamma) compared to DMSO control ([4]; 100 μM isoflavone): inhibitory effect | Cytokine Secretion Profile (determined by RT-PCR) (canine immune cells): None | Cytokine Secretion Profile (determined by RT-PCR) (shrimp immune cells): IFN-gamma | Cytokine Secretion Profile (determined by RT-PCR) (salmon immune cells): IFN-gamma | Cytokine Secretion Profile (determined by RT-PCR) (equine immune cells): None | Cytokine Secretion Profile (determined by RT-PCR) (human immune cells): IFN-gamma | Cytokine Secretion Profile (determined by RT-PCR) (feline immune cells): IL-4 | Cytokine Secretion Profile (determined by RT-PCR) (swine immune cells): None | Cytokine Secretion Profile (determined by RT-PCR) (trout immune cells): IFN-gamma

O=c1c(-c2ccc(O)cc2)coc2cc(O)cc(O)c12 [genistein, 4′5,7-trihydroxyisoflavone]
Cytokine Secretion Profile (determined by RT-PCR) (bovine immune cells): IL-10 | effect on stimulation indices (IFN-gamma) compared to DMSO control ([4]; 10 nM or 100 nM isoflavone): pronounced decrease | effect on stimulation indices (IFN-gamma) compared to DMSO control ([4]; 1 μM isoflavone): pronounced increase | effect on stimulation indices (IFN-gamma) compared to DMSO control ([4]; 100 μM isoflavone): no effect | Cytokine Secretion Profile (determined by RT-PCR) (canine immune cells): None | Cytokine Secretion Profile (determined by RT-PCR) (shrimp immune cells): None | Cytokine Secretion Profile (determined by RT-PCR) (salmon immune cells): IL-10 | Cytokine Secretion Profile (determined by RT-PCR) (equine immune cells): None | Cytokine Secretion Profile (determined by RT-PCR) (human immune cells): IL-10 | Cytokine Secretion Profile (determined by RT-PCR) (feline immune cells): None | Cytokine Secretion Profile (determined by RT-PCR) (swine immune cells): IL-4 | Cytokine Secretion Profile (determined by RT-PCR) (trout immune cells): IL-4, IL-10

CC1(C)C[C@@H](O)[C@]2(C)CC[C@]3(C)C(=CC[C@@H]4[C@@]5(C)CC[C@H](O)[C@](C)(CO)[C@@H]5CC[C@]43C)[C@@H]2C1 [sapogenol B, Sapogenol B]
rank of inhibitory potency among saponins ([3]; FIG. 11): most potent inhibitor | inhibition of LPS-induced NO production ([3]; lowest concentrations, FIG. 11): Zero to minimal inhibition | inhibitory effect on LPS-induced NO production ([3]; saponins in DMSO, FIG. 11): inhibited LPS-induced NO production

insulin: Human recombinant insulin (Sigma, #I2643)
effect on blood glucose levels ([5]; 200 U/kg oral gavage in liquid composition (Formula 2)): markedly reduced blood glucose levels | effect on blood glucose levels ([5]; 200 U/kg oral gavage in water): no efficacy in reducing glucose levels
